Two compounds from the NIST ThermoML archive (doi:10.1016/j.tca.2017.10.021) can be followed below.

Molecules are shown by their SMILES. ± gives the expanded uncertainty stated by the source.

For this data set the following is noted: Crystal, Transpiration method.

`CN.Cl` [methylammonium chloride]: the vapor or sublimation pressure (in general, the equilibrium pressure above the liquid or solid) (393 K) turned out to be 0.0044 ± 0.0003 kPa; the “vapor or sublimation pressure” value (403 K) is 0.0085 ± 0.0004 kPa; the “vapor or sublimation pressure” value (413 K) came to 0.0171 ± 0.0008 kPa; the “vapor or sublimation pressure” value (423 K) worked out at 0.0307 ± 0.0015 kPa; the “vapor or sublimation pressure” value (435.5 K) is given as 0.0643 ± 0.003 kPa; the “vapor or sublimation pressure” value (455 K) is given as 0.1683 ± 0.0068 kPa. Further, the “vapor or sublimation pressure” value reads like this: (463 K) 0.2868 ± 0.015 kPa; (473 K) 0.4424 ± 0.018 kPa; (483 K) 0.7211 ± 0.043 kPa; (493 K) 1.116 ± 0.057 kPa; (513 K) 2.499 ± 0.098 kPa.

Turning to `Cl.N` [ammonium chloride (NH4Cl)], the “vapor or sublimation pressure” value turned out to be 0.4871 ± 0.02 kPa (463 K); 0.7748 ± 0.031 kPa (473 K); 1.14 ± 0.045 kPa (483 K); 1.683 ± 0.074 kPa (493 K); 2.758 ± 0.12 kPa (503 K); 3.639 ± 0.18 kPa (513 K). Moreover, where the note is “543 K”, the “vapor or sublimation pressure” value is given as 11.54 ± 0.52 kPa.
